≈ marks a conversion by molar mass, not a printed value. Blank lines part the entries; values can stand above or below the compound they belong to. Residues, ends and D or L forms follow the SMILES beside them.
Experiments:
[1] = Inhibition of Escherichia coli BL21(DE3) LpxA
Escherichia coli [2] = assay: Antibacterial activity against Escherichia coli ATCC 25922 assessed as bacterial growth inhibition; assay type: functional, organism-based
[3] = Inhibition of Klebsiella pneumoniae LpxH
[4] = Inhibition of Escherichia coli LpxH
Klebsiella pneumoniae [5] = assay: Antibacterial activity against Klebsiella pneumoniae assessed as bacterial growth inhibition; assay type: functional
Escherichia coli [6] = assay: Inhibition of Escherichia coli LpxH at 1 uM relative to control
[7] = Inhibition of mCherry-fused bacterial LpxH assessed as inhibition of UDP-DAG conversion by luminescence based assay; design: species or system Bacteria
Escherichia coli [8] = assay: Antibacterial activity against Escherichia coli assessed as bacterial growth inhibition; assay type: functional
[9] = Inhibition of Escherichia coli LpxC
[10] = Binding affinity to Escherichia coli LpxC assessed as inhibition constant
[11] = Binding affinity to bacterial LpxD assessed as dissociation constant; design: species or system Bacteria
[12] = Binding affinity to bacterial LpxA assessed as dissociation constant; design: species or system Bacteria
Pseudomonas aeruginosa [13] = assay: Antibacterial activity against Pseudomonas aeruginosa ATCC 27853 assessed as bacterial growth inhibition; assay type: functional
Pseudomonas aeruginosa [14] = assay: Antibacterial activity against Pseudomonas aeruginosa clinical isolate assessed as bacterial growth inhibition at <=2 ug/ml; assay type: functional; design: scale not given: the % may be the effect or the level left; settings: dose <= 2 µg/ml; up to 2 µg/mL
Klebsiella pneumoniae [15] = assay: Inhibition of Klebsiella pneumoniae LpxH relative to control; settings: concentration not given here
Pseudomonas aeruginosa [16] = assay: Antibacterial activity against Pseudomonas aeruginosa assessed as bacterial growth inhibition; assay type: functional
[17] = biological target: T1, 3-oxoacyl-[acyl-carrier-protein] synthase 2 (Staphylococcus aureus, UniProt Q5TKS0); assay: Inhibition of Staphylococcus aureus FabF
T1 sequence (Q5TKS0 whole entry): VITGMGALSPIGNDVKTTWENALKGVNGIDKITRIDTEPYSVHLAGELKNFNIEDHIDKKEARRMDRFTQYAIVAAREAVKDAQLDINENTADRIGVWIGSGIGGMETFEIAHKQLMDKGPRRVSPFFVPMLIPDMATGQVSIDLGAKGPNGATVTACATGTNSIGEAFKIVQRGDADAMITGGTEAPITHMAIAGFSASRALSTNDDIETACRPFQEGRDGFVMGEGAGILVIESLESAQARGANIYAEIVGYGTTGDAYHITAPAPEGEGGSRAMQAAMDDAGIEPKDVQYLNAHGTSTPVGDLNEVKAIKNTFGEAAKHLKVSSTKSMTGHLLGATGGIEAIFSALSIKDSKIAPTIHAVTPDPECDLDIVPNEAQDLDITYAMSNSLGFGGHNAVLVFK

[18] = Inhibition of Staphylococcus aureus FabH
[19] = Binding affinity to bacterial LpxA assessed as dissociation constant by SPR analysis; design: species or system Bacteria
[20] = Inhibition of bacterial LpxD; design: species or system Bacteria
Escherichia coli [21] = assay: Antibacterial activity against Escherichia coli TolC minus assessed as bacterial growth inhibition; assay type: functional, organism-based
[22] = Inhibition of bacterial FabF/B; design: species or system Bacteria
[23] = Inhibition of bacterial FabH; design: species or system Bacteria

SMILES: O=CN1CCc2cc(S(=O)(=O)N3CCN(c4cccc(C(F)(F)F)c4)CC3)ccc21
- MIC (Escherichia coli [2]): > 64 µg/mL
- IC50 [3]: 0.36 µM
- IC50 [4]: 0.14 µM
- MIC (Klebsiella pneumoniae [5]): > 64 µg/mL
- inhibition (Escherichia coli [6]): 45%
- IC50 [7]: 1.2 µM

SMILES: O=C(NO)C1COC(c2ccccc2)=N1 (centres undefined)
- MIC (Escherichia coli [8]): 200 µg/mL (≈ 970 µM)
- IC50 [9]: 8.5 µM
- Ki [10]: 24 µM

SMILES: O=C(COc1ccccc1)NNC1=CS(=O)(=O)c2ccccc21
- Kd [12]: 16.7 µM

SMILES: CC(C)(N)[C@H](NC(=O)c1ccc(C#CC#C[C@@H]2C[C@H]2CO)cc1)C(=O)NO [ACHN-975]
- MIC (Escherichia coli [2]): 0.125 µg/mL (≈ 0.338 µM)
- MIC (Pseudomonas aeruginosa [13]): 0.25 µg/mL (≈ 0.677 µM)
- Activity (Pseudomonas aeruginosa [14]): 100%

SMILES: O=C(CCCCNC(=O)Nc1ccc(S(=O)(=O)N2CCN(c3cc(Cl)cc(C(F)(F)F)c3)CC2)cc1)NO
- MIC (Klebsiella pneumoniae [5]): 32 µg/mL (≈ 55.4 µM)
- inhibition (Klebsiella pneumoniae [15]): 79%

SMILES: O=C(NO)[C@@H](Cc1ccc2ccccc2c1)NS(=O)(=O)c1ccc(Br)cc1
- MIC (Escherichia coli [8]): 2 µg/mL (≈ 4.45 µM)
- IC50 [9]: 0.4 µM
- MIC (Pseudomonas aeruginosa [16]): > 32 µg/mL

SMILES: O=CN1CCc2cc(S(=O)(=O)N3CCN(c4cccc(Br)c4)CC3)ccc21
- inhibition (Klebsiella pneumoniae [15]): 48%

SMILES: C/C(=C\C(=O)Nc1nnn[nH]1)c1cccc(C(F)(F)F)c1
- Kd [12]: 2.1 µM

SMILES: C[C@]12CC34C=CC(=O)[C@@](C)(CCC(=O)Nc5c(O)ccc(C(=O)O)c5O)[C@@H]3[C@H](C[C@@H]1C4)O2
- IC50 [17]: 0.29 µM
- IC50 [18]: 247 µM

SMILES: C/C=C/C/C=C/CCC(=O)[C@H]1O[C@H]1C(N)=O [CERULENIN]
- IC50 [22]: 0.1 µg/mL (≈ 0.448 µM)
- IC50 [23]: 150 µg/mL (≈ 672 µM)

More lines, main results first:

- IC50 [1]: > 100 µM
SMILES: CSCC[C@H](NC(=O)[C@@H](N)Cc1c[nH]c2ccccc12)C(=O)N[C@@H](CC(C)C)C(=O)N[C@@H](CCC(=O)O)C(=O)O (H-WMLE-OH)

- Kd [11]: 6 µM
- Kd [12]: 20 µM
SMILES: CC[C@H](C)[C@H](NC(=O)[C@H](CC(=O)O)NC(=O)[C@H](Cc1c[nH]c2ccccc12)NC(=O)[C@H](CCCCN)NC(=O)[C@@H]1CCCN1C(=O)[C@H](CC(C)C)NC(=O)[C@H](CCSC)NC(=O)[C@H](Cc1ccc(O)cc1)NC(=O)[C@H](CC(C)C)NC(=O)[C@H](CC(N)=O)NC(=O)[C@@H](N)[C@@H](C)O)C(=O)N1CCC[C@H]1C(N)=O (H-TNLYMLPKWDIP-NH2)

- IC50 [1]: > 100 µM
SMILES: CC[C@H](C)[C@H](NC(=O)[C@@H]1CCCN1C(=O)[C@H](CCC(=O)O)NC(=O)[C@H](CC(C)C)NC(=O)[C@H](CCSC)NC(=O)[C@@H](N)Cc1c[nH]c2ccccc12)C(=O)O (H-WMLEPI-OH)

- IC50 [1]: > 100 µM
SMILES: CC[C@H](C)[C@H](NC(=O)[C@@H]1CCCN1C(=O)[C@H](CCC(=O)O)NC(=O)[C@H](CC(C)C)NC(=O)[C@H](CCSC)NC(=O)[C@H](Cc1c[nH]c2ccccc12)NC(=O)CN)C(=O)N[C@@H](C)C(=O)O (H-GWMLEPIA-OH)

- IC50 [1]: 9 µM
SMILES: CC[C@H](C)[C@H](NC(=O)[C@@H]1CCCN1C(=O)[C@H](CCC(=O)O)NC(=O)[C@H](CC(C)C)NC(=O)[C@H](CCSC)NC(=O)[C@H](Cc1c[nH]c2ccccc12)NC(=O)CNC(=O)[C@H](CO)NC(=O)[C@@H](N)CO)C(=O)N[C@@H](C)C(=O)NCC(=O)N[C@@H](CCCCN)C(=O)N[C@@H](Cc1c[nH]c2ccccc12)C(=O)O (H-SSGWMLEPIAGKW-OH)

- Kd [19]: 2.1 µM
SMILES: O=C(O)CCC(=O)c1cccc2ccccc12

- IC50 [20]: 3.2 µM
SMILES: CSCC[C@H](NC(=O)[C@H](Cc1ccccc1)NC(=O)[C@H](CC(N)=O)NC(=O)[C@H](CC(N)=O)NC(=O)[C@H](CCC(=O)O)NC(=O)[C@@H](N)CO)C(=O)N[C@@H](CC(C)C)C(=O)N1CCC[C@H]1C(=O)N[C@@H](CC(C)C)C(=O)N[C@@H](CC(C)C)C(=O)N1CCC[C@H]1C(=O)N[C@@H](CC(C)C)C(N)=O (H-SENNFMLPLLPL-NH2)
- IC50 (Escherichia coli [21]): 3.13 µM

- IC50 [1]: 0.05 µM
SMILES: CC[C@H](C)[C@H](NC(=O)[C@@H]1CCCN1C(=O)[C@H](CC(=O)O)NC(=O)[C@H](CC(C)C)NC(=O)[C@H](CCSC)NC(=O)[C@@H](N)Cc1c[nH]c2ccccc12)C(=O)N[C@@H](C)C(=O)NCC(=O)N[C@@H](CCCCN)C(=O)N[C@@H](Cc1c[nH]c2ccccc12)C(=O)N[C@@H](CO)C(=O)N[C@@H](CCCNC(=N)N)C(=O)O (H-WMLDPIAGKWSR-OH)

Source: ChEMBL document CHEMBL5149967, “Chemical Highlights Supporting the Role of Lipid A in Efficient Biological Adaptation of Gram-Negative Bacteria to External Stresses” (J Med Chem, 2021)
